From patent US10179770B2, “Quinolines derivatives as novel anticancer agents” (GENOSCIENCE PHARMA, priority 2013, dated 2019)

Key:
[1] = tested on: A375; test: Cell proliferation assay at 10 μM; format: cell-based, human; details: Homo sapiens, A-375, 72 h, read-out: Cell viability observed at 10 μM
Method in brief: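 A375 and HCT-116 cells grown in DMEM with 10% FBS, seeded overnight, then exposed to compound at 10 μM for 72 h at 37 °C, 5% CO2 against vehicle control. Outgrowth read by MTS (CellTiter 96 Aqueous One) absorbance; each point the mean of two replicates.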

[2] = tested on: patient derived acute myeloid leukemia (AML) cell lines; test: Cell growth inhibition assay, patient derived AML cells; format: cell-based, human; details: Homo sapiens, 48 h
Description: The patient derived acute myeloid leukemia (AML) cells were obtained after written informed consent under the Institut Paoli Calmette (IPC) institutional review board approval and under the strict compliance of the Helsinki declaration on medical research involving human subjects. […] Each compound was added at different concentrations (combinations of six concentrations) to each well, and cell cultures were incubated for 48 h. Vehicle (H2O) was used as a control, and all compounds were tested in a constant percentage of vehicle. Cell outgrowth was measured using the CellTiter-Glo luminescent cell viability assay as described by the manufacturer (Promega, Ref G7571 Madison, Wis., USA) using a Centro (Berthold, France) plate reader. In each experiment, each point represents the average of triplicates in cell culture. The experimental data are analyzed using a computer program, Graphpad Prism (GraphPad Software, Inc.

[3] = tested on: Colo205; test: EC50 determination in cancer cell lines; format: cell-based; details: Homo sapiens, COLO 205, 72 h, * n>2
Method in brief: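 Cells treated with compound for 72 h, vehicle (DMSO or H2O) held constant; adherent lines plated overnight beforehand, MOLM-14 plated immediately before. Growth read by absorbance: MTS-type CellTiter 95 for adherent cells, sulforhodamine B for suspension cells. EC50 is dose reducing absorbance to 50% of vehicle, mean of ≥2 experiments.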

For `CC(C)(C)NC1CCN(c2cc(-c3ccc(Cl)cc3)nc3ccccc23)CC1.Cl.Cl` [XII-4, 2-(4-chloro-phenyl)-4-(4-N-tert-butylamino-piperidin-1-yl)quinoline dihydrochloride], the viability at 10 µM [1] was < 20%, the EC50 ([2]; Patient 3, subtype Tri8) was 5 µM and the EC50 ([2]; Patient 8, subtype FLT3−) was 21 µM. The EC50 ([2]; Patient 9, subtype FLT3+) was > 40 µM, the EC50 ([2]; Patient 10, subtype Inv 3) was 25 µM and the EC50 ([2]; Patient 12, subtype 5 & 7) was > 40 µM. The EC50 ([2]; Patient 13, subtype MLL) was 27 µM and the EC50 ([2]; Patient 16, subtype Inv 3) was 19 µM.

For `CCN(CC)C1CCN(C(C)c2cc(-c3ccccc3)nc3ccccc23)CC1.Cl.Cl` (stereo not shown) [XIX-3, 2-phenyl-4-{1-[4-(N,N-diethylamino)piperidin-1-yl]-eth-1-yl}quinoline dihydrochloride], the viability at 10 µM [1] was < 20%, the EC50 ([2]; Patient 3, subtype Tri8) was 8 µM and the EC50 ([2]; Patient 8, subtype FLT3−) was 21 µM. For the same molecule, the EC50 ([2]; Patient 9, subtype FLT3+) was 18 µM, the EC50 ([2]; Patient 10, subtype Inv 3) was 28 µM and the EC50 ([2]; Patient 12, subtype 5 & 7) was 16 µM. For the same molecule, the EC50 ([2]; Patient 13, subtype MLL) was 16 µM and the EC50 ([2]; Patient 16, subtype Inv 3) was 22 µM.

For `CCN(CC)C1CCN(C(C)c2cc(-c3ccc4ccccc4c3)nc3ccccc23)CC1.Cl.Cl` (stereo not shown) [XXIV-3, 2-(2-naphtyl)-4-{1-[4-(N,N-diethylamino)-piperidin-1-yl]-eth-1-yl}quinoline dihydrochloride], the viability at 10 µM [1] was < 20%, the EC50 ([2]; Patient 3, subtype Tri8) was 2 µM and the EC50 ([2]; Patient 8, subtype FLT3−) was 10 µM. The EC50 ([2]; Patient 9, subtype FLT3+) was 17 µM, the EC50 ([2]; Patient 10, subtype Inv 3) was 13 µM and the EC50 ([2]; Patient 12, subtype 5 & 7) was 11 µM. The EC50 ([2]; Patient 13, subtype MLL) was 8 µM, the EC50 ([2]; Patient 16, subtype Inv 3) was 6 µM and the EC50 [3] was 5 µM.

For `Cc1ccc(-c2cc(N3CCC(NC(C)(C)C)CC3)c3ccccc3n2)cc1.Cl.Cl` [XIII-8, 2-(4-methyl-phenyl)-4-(4-N-tert-butylamino-piperidin-1-yl)quinoline dihydrochloride], the viability at 10 µM [1] was < 20%, the EC50 ([2]; Patient 3, subtype Tri8) was 15 µM and the EC50 ([2]; Patient 8, subtype FLT3−) was 27 µM. It also gave an EC50 ([2]; Patient 9, subtype FLT3+) of 22 µM, an EC50 ([2]; Patient 10, subtype Inv 3) of 35 µM and an EC50 ([2]; Patient 12, subtype 5 & 7) of 21 µM. The EC50 ([2]; Patient 13, subtype MLL) was 25 µM, the EC50 ([2]; Patient 16, subtype Inv 3) was 24 µM and the EC50 [3] was 8 µM.
